The structures appear in SMILES notation. Where only a bound is given, the exact number is not on record here.

Test [1] concerns HCT-116. Description: SRB assay, inhibition of tumor cell growth at 1 µM (Example 61). The format is cell-based. The note with it: Homo sapiens, 48 hours. Here is the method:
(§1) 3,000-15,000 cells/well were exposed to the test compounds at a concentration of 1 µM for 48 hours, and cytotoxicty was measured using the SRB assay according to Shekan et al (J Natl Cancer Inst (1990) 82, 1107-112). Briefly, cells were plated in 96 well dishes 24 hours prior to compound addition. The assay was terminated with the addition of cold TCA to a final concentration of 10% and the plates were incubated for one hour at 4°C. The plates were then washed 5 times with water and 100µl of a Sulforhodamine B solution (4%) was added to each well. The plate was then incubated for 10 minutes at room temperature before removal of unbound dye by washing with 1% acetic acid. The bound dye was solubilized with 10 mM Trizma base and the absorbance read at OD570. Inhibitory activity of the compounds was calculated as % inhibition compared to cells treated with the solvent (DMSO). Table 2 represents the growth inhibitory activity of certain compunds of the invention across a number of tumor cell lines.
Background: The SRB assay estimates cell density from bound dye.

Test [2] concerns PC-3. The test is described as above. Type of test: cell-based. The settings on record: Homo sapiens, 48 hours. Here is the method:
as §1

The subject of test [3] is SW-620. The description is as above. Type of test: cell-based. The note with it: Homo sapiens, 48 hours. Here is the method:
as §1

Test [4] concerns MCF7. Described as above. Type of test: cell-based. The note with it: Homo sapiens, 48 hours. Here is the method: as §1
Test [5] concerns A-549. Described as above. The format is cell-based. The note with it: Homo sapiens, A549, 48 hours. Here is the method: as §1
In test [6] the test system is A2780. Description: IC50 determination by SRB assay (Example 62). Type of test: cell-based. The note with it: Homo sapiens. Here is the method:
as §1
(§2) The assay was performed similar to example 61. However, test compounds were added at various concentrations, such as from 0.001 to about 0.1 µM, from 0.1 to about 10 µM, or from 1 to about 10 µM, as the need may be, in order to estimate the IC50 values. IC50 values were determined by plotting the percentage inhibitory activity for each concentration, fitting a curve using appropriate software and estimating the concentration at which 50% inhibition of growth would occur.

The test system of test [7] is HCT-116. Put plainly: IC50 determination by SRB assay (Example 62). Type of test: cell-based. The settings on record: Homo sapiens, HCT-116; HCY-116. Here is the method:
as §1, §2

For test [8], the system named is SW-620. Put plainly: IC50 determination by SRB assay (Example 62). The format is cell-based. The note with it: Homo sapiens. Here is the method:
as §1, §2

For test [9], the system named is MCF7. Description: IC50 determination by SRB assay (Example 62). The note with it: Homo sapiens. The format is cell-based. Here is the method:
as §1, §2

Test [10] relates to A2780. Put plainly: SRB assay, inhibition of tumor cell growth at 1 µM (Example 61). The format is cell-based, Human. The note with it: Homo sapiens, 48 hours. Here is the method:
as §1

In test [11] the test system is A-549. Description: IC50 determination by SRB assay (Example 62). The format is cell-based. The settings on record: Homo sapiens, A549. Here is the method:
as §1, §2

Test [12] deals with PC-3. Description: IC50 determination by SRB assay (Example 62). Type of test: cell-based. The settings on record: Homo sapiens. Here is the method:
as §1, §2

One may read the inhibition as the share of the control response that was lost under treatment. Lower therefore signals a weak effect. The IC50 is the point on the concentration scale where inhibition reaches its midpoint. Higher therefore signals a need for much substance. In the case of `O=c1c(NCCCCCCOc2ccc(Cl)cc2)c(Nc2cccnc2)c1=O` [SQ-1B], the inhibition at 1 µM with HCT-116 [1] is over 80%; with PC-3 [2], over 50%; in the test with SW-620 [3], over 20%; in the test with MCF7 [4], over 80%; in the test on A-549 [5], over 20%; in the test with A2780 [10] it was over 80%. Moreover, the IC50 in the test on A2780 [6] is under 100 nM; in the test on HCT-116 [7] it was under 20 nM; with SW-620 [8], under 2000 nM; with MCF7 [9], under 10 nM.
Take `O=c1c(NCCCCCOc2ccc(Cl)cc2)c(Nc2cccnc2)c1=O` [SQ-2]: the inhibition at 1 µM in the test with HCT-116 [1] is over 80%; in the test with PC-3 [2], over 50%; with SW-620 [3], over 50%; in the test on MCF7 [4] it was over 80%; with A-549 [5] it was over 50%; in the test on A2780 [10], over 80%. For the same compound, the IC50 in the test on A2780 [6] is under 20 nM; in the test with HCT-116 [7], under 20 nM; in the test with SW-620 [8], under 10000 nM; with MCF7 [9], under 20 nM.
Regarding `O=c1c(NCCCCCCOc2ccccc2)c(Nc2cccnc2)c1=O` [SQ-3], the inhibition at 1 µM with HCT-116 [1] is over 80%; with PC-3 [2] it was over 50%; with SW-620 [3], over 50%; in the test on MCF7 [4], over 5%; with A-549 [5] it was over 50%; in the test on A2780 [10] it was over 80%. Besides, the IC50 with HCT-116 [7] is under 100 nM; in the test with SW-620 [8], under 500 nM; in the test on MCF7 [9], under 10000 nM; in the test with A-549 [11] it was under 500 nM.
Turning to `Cc1ccc(OCCCCCCNc2c(Nc3cccnc3)c(=O)c2=O)cc1` [SQ-4], the inhibition at 1 µM in the test with HCT-116 [1] is over 80%; in the test on PC-3 [2], over 50%; in the test with SW-620 [3] it was over 50%; in the test on A-549 [5] it was over 50%; in the test with A2780 [10], over 80%. The IC50 in the test on HCT-116 [7] was under 100 nM; in the test on SW-620 [8], under 2000 nM; in the test on MCF7 [9], under 10000 nM; in the test with A-549 [11], under 500 nM.
Consider `O=c1c(NCCc2ccc(Oc3ccc(Cl)cc3)cc2)c(Nc2cccnc2)c1=O` [SQ-6, 3-{2-[4-(4-Chlorophenoxy)-phenyl]-ethylamino}-4-(pyridin-3-yl-amino)-cyclobut-3-ene-1,2-dione], for which the IC50 was under 20 nM in the test on A2780 [6], under 100 nM in the test with HCT-116 [7] and under 500 nM in the test with PC-3 [12].
As for `O=c1c(NCCCCCCOc2ccc(Cl)cc2)c(Nc2ccncc2)c1=O` [SQ-7B], the inhibition at 1 µM with HCT-116 [1] is over 80%; with PC-3 [2], over 50%; in the test on SW-620 [3], over 50%; in the test with A2780 [10], over 80%. Besides, the IC50 with A2780 [6], in the test with HCT-116 [7] and with MCF7 [9] was under 100 nM each time.
In the case of `O=c1c(NCCCCCCOc2ccccc2)c(Nc2ccncc2)c1=O` [SQ-12, 3-(6-Phenoxyhexylamino)-4-(pyridin-4y1-amino)-3-cyclobutene-1,2-dione], the inhibition at 1 µM with HCT-116 [1] was over 80%; in the test on PC-3 [2], over 50%; with SW-620 [3] it was over 20%; in the test with MCF7 [4] it was over 20%; in the test on A-549 [5] it was over 50%; in the test with A2780 [10], over 80%. For the same compound, the IC50 with A2780 [6] was under 20 nM; in the test with HCT-116 [7], under 20 nM; in the test with MCF7 [9], under 10000 nM; with A-549 [11], under 2000 nM.
For the compound `O=c1c(NCCCCCCOc2cccnc2)c(Nc2ccncc2)c1=O` [SQ-16, 3-(Pyridin-4-ylamino)-4-[6-(pyridin-3-yloxy)-hexylamino]-cyclobut-3-ene-1,2-dione], the inhibition at 1 µM in the test with HCT-116 [1] is over 80%; in the test with PC-3 [2], over 20%; in the test on SW-620 [3], over 20%; in the test with MCF7 [4] it was over 5%; in the test with A-549 [5], over 20%; in the test on A2780 [10], over 80%. The IC50 in the test on A2780 [6] is under 100 nM; in the test on HCT-116 [7] it was under 500 nM; in the test with PC-3 [12], under 500 nM.
As to `O=c1c(NCCc2ccc(Oc3ccccc3)cc2)c(Nc2ccncc2)c1=O` [SQ-17, 3-[2-(4-Phenoxyphenyl)-ethylamino]-4-(pyridin-4-yl-amino)-cyclobut-3-ene-1,2-dione], the inhibition at 1 µM in the test on HCT-116 [1] was over 80%; in the test with PC-3 [2] it was over 50%; in the test with SW-620 [3] it was over 20%; in the test on A-549 [5], over 50%; with A2780 [10], over 80%. For the same compound, the IC50 is under 100 nM with A2780 [6], under 20 nM with HCT-116 [7], under 500 nM in the test with SW-620 [8] and under 10000 nM in the test on MCF7 [9].
As for `O=c1c(NCCc2ccc(Oc3ccc(Cl)cc3)cc2)c(Nc2ccncc2)c1=O` [SQ-20, 3-{2-[4-(4-Chlorophenoxy)-phenyl]-ethylamino}-4-(pyridin-4-yl-amino)-cyclobut-3-ene-1,2-dione], the figures for the IC50 in the test with A2780 [6], in the test on HCT-116 [7] and in the test on PC-3 [12] were under 20 nM, under 100 nM and under 500 nM, respectively.
`O=c1c(NCCCCCCCc2ccccc2)c(Nc2ccncc2)c1=O` [SQ-22, 3-(7-Phenylheptylamino)-4-(pyridin-4-yl-amino)-cyclobut-3-ene-1,2-dione]: the inhibition at 1 µM in the test with HCT-116 [1] was over 80%; in the test with PC-3 [2], over 50%; with SW-620 [3], over 50%; in the test on MCF7 [4], over 20%; in the test on A-549 [5], over 50%; in the test with A2780 [10] it was over 80%. Also, the IC50 with A2780 [6], in the test on HCT-116 [7] and in the test with PC-3 [12] was under 20 nM each time.
For the compound `O=c1c(NCCCCCCSc2ccc(Cl)cc2)c(Nc2ccncc2)c1=O` [SQ-27, 3-[6-(4-Chlorophenylsulfanyl)-hexylamino]-4-(pyridin-4-yl-amino)-cyclobut-3-ene-1,2-dione], the inhibition at 1 µM with HCT-116 [1] is over 80%; in the test with PC-3 [2] it was over 50%; in the test with SW-620 [3], over 20%; in the test with MCF7 [4], over 20%; with A-549 [5], over 50%; in the test with A2780 [10], over 80%. The IC50 with HCT-116 [7] was under 100 nM; in the test on SW-620 [8] it was under 500 nM; in the test with A-549 [11], under 2000 nM.
For `O=c1c(NCc2ccc(Oc3ccc(Cl)cc3)cc2)c(Nc2cccnc2)c1=O` [SQ-30, 3-[4-(4-Chlorophenoxy)-benzylamino]-4-(pyridin-3-yl-amino)-cyclobut-3-ene-1,2-dione], the inhibition at 1 µM with HCT-116 [1] was over 80%; in the test with PC-3 [2], over 20%; with SW-620 [3], over 20%; in the test with MCF7 [4], over 80%; in the test on A-549 [5], over 50%; with A2780 [10], over 80%. In addition, the IC50 in the test with HCT-116 [7] is under 2000 nM; with SW-620 [8] it was over 10000 nM; in the test on MCF7 [9] it was under 500 nM.
With `O=c1c(NCc2ccc(COc3ccc(Cl)cc3)cc2)c(Nc2cccnc2)c1=O` [SQ-32, 3-[4-(4-Chlorophenoxymethyl)-benzylamino]-4-(pyridin-3-yl-amino)-cyclobut-3-ene-1,2-dione], the inhibition at 1 µM in the test on HCT-116 [1] was over 80%; with PC-3 [2], over 50%; with SW-620 [3], over 5%; in the test on MCF7 [4], over 20%; in the test on A-549 [5] it was over 20%; in the test on A2780 [10], over 80%. The IC50 is under 100 nM in the test with A2780 [6], under 100 nM with HCT-116 [7], over 10000 nM in the test on SW-620 [8] and over 10000 nM in the test with MCF7 [9].
Take `O=c1c(NCc2cccc(COc3ccc(Cl)cc3)c2)c(Nc2cccnc2)c1=O` [SQ-35, 3-[3-(4-Chlorophenoxymethyl)-benzylamino]-4-(pyridin-3-yl-amino)-cyclobut-3-ene-1,2-dione]: the IC50 in the test with A2780 [6] was under 10000 nM; in the test with HCT-116 [7], under 10000 nM; with PC-3 [12], over 10000 nM.
For `O=c1c(NCCC2CCN(Cc3ccccc3)CC2)c(Nc2cccnc2)c1=O` [SQ-37, 3-[2-(1-Benzylpiperidin-4-yl)ethylamino]-4-(pyridin-3-yl-amino)-cyclobut-3-ene-1,2-dione], the IC50 with A2780 [6] was under 2000 nM; with HCT-116 [7], under 2000 nM; in the test on PC-3 [12], under 10000 nM.
Take `O=c1c(NCCC2CCN(Cc3ccccc3)CC2)c(Nc2ccncc2)c1=O` [SQ-38, 3-[2-(1-Benzylpiperidin-4-yl)-ethylamino]-4-(pyridin4-yl-amino)-cyclobut-3-ene-1,2-dione]: the IC50 in the test on A2780 [6], with HCT-116 [7] and in the test on PC-3 [12] was under 10000 nM throughout.
Regarding `O=c1c(NCCCCCCOc2ccc(CN3CCOCC3)cc2)c(Nc2cccnc2)c1=O` [SQ-39, 3-(6-[4-(Morpholinomethyl)-phenoxy]-hexylamino)-4-(pyridin-3-yl-amino)-3-cyclobutene-1,2-dione], the inhibition at 1 µM was over 80% with HCT-116 [1]; over 20% in the test on PC-3 [2]; over 20% in the test on SW-620 [3]; over 5% with MCF7 [4]; over 50% with A-549 [5]; over 80% in the test with A2780 [10]. Also, the IC50 in the test with A2780 [6] is under 20 nM; in the test on HCT-116 [7] it was under 20 nM; with PC-3 [12], under 100 nM.

The values above are taken from patent EP1674457B1, “Derivatives of squaric acid with anti-proliferative activity” (GPC Biotech AG, priority 2004, dated 2006).
